One experiment deals with CD73 (MDA-MB-231 cells) (Homo sapiens (Human), UniProt P21589). Description: CD73 Cellular Assay. It is filed as cell-based. The conditions noted are these: 10 μM AMP working solution, 45 min at 37° C., Malachite Green readout, read-out: Cellular IC50 against CD73. On the procedure: Compound serial dilution (1:3) was prepared with Echo 555 liquid handler (Labcyte) into the corresponding wells of a 384-well plate. 40 μL of MDA-MB-231 cells (ATCC, HTB-26, breast cancer, final concentration at 20,000 cells/mL) suspended in assay buffer (25 mM Tris-HCl pH 7.5, 5 mM MgCl2, 0.01% BSA, 0.01% Brij-35) were added into the corresponding wells of the plate. After incubating with compounds for 30 minutes, 40 μL of AMP working solution (10 μM AMP, 25 mM Tris-HCl pH 7.5, 5 mM MgCl2, 0.01% BSA, 0.01% Brij-35) was added into each well in the assay plate. The assay plate was then incubated in a 5% CO2 incubator (Thermo Fisher Scientific) at 37° C. for 45 min. After the reaction was completed, 50 μL of the supernatants was collected and transferred into a new 384 well plate. 10 μL of Malachite A was added to each well in the assay plate and incubated for 10 minutes. 10u L of Malachite B was then added to each corresponding well of the plate and incubated for 30 minutes. Finally the absorbance value was read on the Envision plate reader at […]. Calculation percentage inhibition by using equation {% inhibition=100×[I−(X−MIN)/(MAX−MIN)]} where X equals to the well signal, Max equals signal of DMSO control and MIN equals signal of no cell control.

For a further experiment, the target named is recombinant CD73 protein (Homo sapiens (Human), UniProt P21589). As to the kind of experiment: CD73 Biochemical Assay. The conditions noted are these: 0.2 nM recombinant CD73, 10 μM AMP working solution, Malachite Green readout; read-out: Enzymatic IC50 against CD73. As for the experimental part:
Compound serial dilution (1:3) was prepared with Echo 555 liquid handler (Labcyte) into the corresponding wells of a 384-well plate. 25 μL of enzyme working solution [0.2 nM recombinant CD73 protein (purchased from R&D Systems, Inc), 25 mM Tris-HCl pH 7.5, 5 mM MgCl2, 0.01% BSA, 0.01% Brij-35 non-ionic detergent] was added to the assay plate and incubated with compounds for 15 minutes at room temperature. After adding 25 μL of AMP working solution (10 μM AMP, 25 mM Tris-HCl pH 7.5, 5 mM MgCl2, 0.01% BSA, 0.01% Brij-35) into the assay plate, the reaction was incubated for 10 min at room temperature. 10 uL of Malachite Green A solution was then added to each well for 10 minutes incubation. 10 uL of Malachite B solution was added to each well and then incubated for another 30 minutes. Finally the absorbance value was read on the Envision plate reader (PerkinElmer) at […]. Calculation percentage inhibition by using equation {% inhibition=100×[I−(X−MIN)/(MAX−MIN)]} where X equals to the well signal, Max equals signal of DMSO control and MIN equals signal of no cell control.

Chain of recombinant CD73 protein (P21589 27-574, species assumed): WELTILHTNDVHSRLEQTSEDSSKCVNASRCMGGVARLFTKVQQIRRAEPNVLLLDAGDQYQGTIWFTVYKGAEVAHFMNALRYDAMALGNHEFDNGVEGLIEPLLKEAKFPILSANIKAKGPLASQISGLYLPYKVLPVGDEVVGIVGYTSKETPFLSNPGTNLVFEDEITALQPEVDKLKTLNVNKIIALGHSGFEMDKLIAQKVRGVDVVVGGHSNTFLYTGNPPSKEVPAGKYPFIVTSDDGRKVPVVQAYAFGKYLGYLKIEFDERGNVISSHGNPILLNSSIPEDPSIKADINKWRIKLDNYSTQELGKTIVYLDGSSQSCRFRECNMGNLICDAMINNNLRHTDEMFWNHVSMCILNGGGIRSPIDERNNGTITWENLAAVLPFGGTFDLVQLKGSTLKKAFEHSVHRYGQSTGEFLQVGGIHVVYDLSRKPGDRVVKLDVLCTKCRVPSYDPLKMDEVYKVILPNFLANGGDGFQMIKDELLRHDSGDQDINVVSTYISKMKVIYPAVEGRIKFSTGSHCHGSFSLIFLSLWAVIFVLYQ
Chain of CD73 (MDA-MB-231 cells) (P21589 27-574): as the sequence (P21589 27-574, species assumed) above

A word on the IC50: it is the point on the concentration scale where inhibition reaches its midpoint. As for `Cn1c(=O)[nH]c2nnc(-c3c[nH]c(=O)[nH]c3=O)cc21` [Example 1, 5-(5-methyl-6-oxo-7H-imidazo[4,5-c]pyridazin-3-yl)-1H-pyrimidine-2,4-dione], the half-maximal inhibitory concentration (IC50) at CD73 (MDA-MB-231 cells) was 74 nM; on recombinant CD73 protein it was 622 nM.
Take `Cn1c(=O)n(C)c2nnc(-c3c[nH]c(=O)[nH]c3=O)cc21` [Example 2, 5-(5,7-dimethyl-6-oxo-imidazo[4,5-c]pyridazin-3-yl)-1H-pyrimidine-2,4-dione]: the figures for the 50% inhibitory concentration (IC50) on CD73 (MDA-MB-231 cells) and at recombinant CD73 protein were 156 nM and 254 nM, respectively.
The matching figures for `CC(C)n1c(=O)n(C)c2nnc(-c3c[nH]c(=O)[nH]c3=O)cc21` [Example 3, 5-(5-isopropyl-7-methyl-6-oxo-imidazo[4.5-]pyridazin-3-yl)-1H-pyrimidine-2,4-dione]: 27 nM and 267 nM.
For the compound `Cn1c(=O)n(Cc2ccccc2)c2cc(-c3c[nH]c(=O)[nH]c3=O)nnc21` [Example 4, 5-(5-benzyl-7-methyl-6-oxo-imidazo[4,5-c]pyridazin-3-yl)-1H-pyrimidine-2,4-dione], the IC50 at CD73 (MDA-MB-231 cells) turned out to be 107 nM.

(Values after patent US20260001884A1, “Heterocycle compounds for the treatment of cancer” (Hoffmann-La Roche Inc., priority 2022, published 2026).)
